Measured values as given in patent publication US4469701A, “Pyrrolid-3-en-2-ones and pharmaceutical methods of use thereof” (Stauffer Chemical Company, priority 1983, dated 1984).
Read-outs that look alike come from different tables or passages of the source.

Assays:
[1] = tested on: spontaneously hypertensive rats (SHR); assay: Antihypertensive: blood pressure (tail cuff) in spontaneously hypertensive rats (SHR); assay type: in vivo, rat; settings: for ED100 / inhibition in vivo at 100 mg/kg: Rattus norvegicus; for ED100: po, read-out: ED-100, antihypertensive; for inhibition in vivo at 100 mg/kg: 6 hr. after a 100 mg/kg oral dose, significance >10, read-out: Antihypertensive: percent decrease in systolic blood pressure in spontaneously hypertensive rats
Method: Blood pressure was measured indirectly (tail cuff) in unanesthetized, unheated spontaneously hypertensive rats (SHR) before and 2, 4, and 6 hours after p.o. dosing. Reduction in mean pressure by more than 10% (>10) at any two consecutive measurement times after dosing indicates antihypertensive activity.

[2] = tested on: rats; assay: Antiulcer: stress induced gastric ulcers in rats; assay type: in vivo, rat; settings: for inhibition in vivo at 50 mg/kg / ED100: Rattus norvegicus; for inhibition in vivo at 50 mg/kg: 4 hr. following a 50 mg/kg oral dose in rats, significance >60, read-out: U = Antiulcerative: percent inhibition of stress ulcers; for ED100: po, read-out: ED-100, antiulcer
Method: Fasted rats were dosed, p.o., 30 minutes before immobilization in wire mesh and partial immersion in water for 4 hours. Inhibition of the resulting stress induced gastric ulcers by more than 60% (>60) indicates activity.
^6 U = Antiulcerative. Percent inhibition of stress ulcers 4 hr.
following a 50 mg/kg oral dose in rats.

[3] = tested on: mice; assay: Acute toxicity / autonomic effects observation; settings: mouse, in vivo
Method: Mice were dosed at 300 mg/kg, per oral (p.o.) and […], interperitoneal (i.p.) for observation of any acute toxic symptoms or autonomic effects during the subsequent 72 hours. If none were noted, pharmacological evaluation proceeded employing doses and concentrations for each test based on appropriate multiples of doses required by suitable reference compounds. If acute toxicity was observed initially, the minimal toxic dose was determined and pharmacological screening doses were reduced proportionately.

[4] = tested on: mice; assay: Antiarrhythmic: chloroform-induced cardiac arrhythmia in mice; assay type: in vivo, mouse; settings: for A = Antiarrythmic: mouse hearts fibrillating (of 3): 15 min. after a 200 mg/kg intraperitoneal dose, significance <2; for ED100: Mus musculus, ip, read-out: ED-100, antiarrhythmic
Method: ^2 A = Antiarrythmic. Less than 2/3 mouse hearts fibrillating 15 min.

[5] = tested on: rats; assay: Bradycardia: heart rate by EKG in rats; assay type: in vivo, rat; settings: for inhibition in vivo at 5 mg/kg / ED100: Rattus norvegicus; for inhibition in vivo at 5 mg/kg: 0.75 h, 45 min. after a 5 mg/kg oral dose in rats, significance >10, read-out: B = Bradycardiac: percent decrease in heart rate; for ED100: po, rats, reference compounds, read-out: ED-100, bradycardia
Method: […] Decrease in heart rate by more than 10% (>10) is considered a bradycardic effect.
Percent decrease in heart rate 45 min. after a 5
mg/kg oral dose in rats.

[6] = tested on: hypercholesterolemic mice; assay: Hypocholesterolemic: serum cholesterol in hypercholesterolemic mice; assay type: in vivo, mouse; settings: Mus musculus; hypercholesterolemic mice, 2 oral doses of 200 mg/kg 20 hr. apart; significance >20; read-out: C = Hypocholesterolemic: percent decrease in serum cholesterol
Method: Mice made hypercholesterolemic by being fed a high cholesterol-cholic acid diet for 7 days were dosed on the sixth and seventh days, p.o. After fasting overnight, reduction in serum cholesterol concentration by more than 15% (>15) from hypercholesterolemic control mice indicates activity.
^4 C = Hypocholesterolemic. Percent decrease in serum cholesterol in
hypercholesterolemic mice given 2 oral doses of 200 mg/kg drug candidate

[7] = tested on: glucose-loaded mice; assay: Hypoglycemic, glucose-loaded mice; assay type: in vivo, mouse; settings: glucose loaded mice, 100 mg/kg oral dose; significance >20
Method: Reduction in blood glucose concentration by more than 20% (>20) in fasted, glucose-loaded (1 gm/kg) mice one hour after dosing, p.o., indicates activity (test compound administered at same time as glucose load).
^5 H = Hypoglycemic. Percent decrease in serum glucose concentration
in glucose loaded mice hr. following a 100 mg/kg oral dose.

[8] = tested on: mice; assay: Central anticholinergic: oxotremorine tremors in mice; settings: Mus musculus, ip, 1 h, read-out: ED-100, central anticholinergic

SMILES: C[C@](N)(Cc1ccc(O)c(O)c1)C(=O)O [methyldopa, reference compound]
- ED100 ([1]; SHR, reference compounds): 50 mg/kg

SMILES: CC1(C)CCCC(C)(C)N1CC1=CC(=O)N(c2cccc(SC(F)(F)F)c2)C1 [Compound 2, N-[3'-trifluoromethylthiophenyl]-4-[2",2",6",6"tetramethylpiperidino]methylpyrrolid-3-en-2-one]
- inhibition in vivo at 50 mg/kg [2]: 38%
- Acute toxicity / toxic effects [3]: apparent absence
- Autonomic effect / autonomic inhibition [3]: apparent absence of autonomic effect
- A = Antiarrythmic: mouse hearts fibrillating (of 3) [4]: 3
- inhibition in vivo at 100 mg/kg [1]: 14%
- inhibition in vivo at 5 mg/kg [5]: 6%
- inhibition in vivo at 200 mg/kg [6]: 0%

SMILES: CC1(C)CCCC(C)(C)N1CC1=CC(=O)N(c2cccc(Br)c2)C1 [Compound 14]
- inhibition in vivo at 50 mg/kg [2]: 50%
- Antiulcer effect, in words ([2]; rat, in vivo): activity appears to be weaker than with Compound 13
- A = Antiarrythmic: mouse hearts fibrillating (of 3) [4]: 3
- inhibition in vivo at 100 mg/kg [1]: 4%
- inhibition in vivo at 5 mg/kg [5]: 0%
- inhibition in vivo at 200 mg/kg [6]: 5%

SMILES: CC1(C)CCCC(C)(C)N1CC1=CC(=O)N(c2cccc([N+](=O)[O-])c2)C1 [Compound 11]
- inhibition in vivo at 50 mg/kg [2]: 25%
- Autonomic effect / autonomic inhibition [3]: absence
- A = Antiarrythmic: mouse hearts fibrillating (of 3) [4]: 3
- inhibition in vivo at 100 mg/kg [1]: 27%
- Antihypertensive activity, onset / comparison in words ([1]; p.o.): Mild, rather slow onset
- inhibition in vivo at 5 mg/kg [5]: 5%
- Bradycardic effects, in words ([5]; rat, in vivo): absence of bradycardia
- inhibition in vivo at 200 mg/kg [6]: 0%

SMILES: CC1(C)CCCC(C)(C)N1CC1=CC(=O)N(c2cc(C(F)(F)F)cc(C(F)(F)F)c2)C1 [Compound 3]
- inhibition in vivo at 50 mg/kg [2]: 38%
- Autonomic effect / autonomic inhibition [3]: No evidence of autonomic inhibition
- A = Antiarrythmic: mouse hearts fibrillating (of 3) [4]: 3
- inhibition in vivo at 100 mg/kg [1]: 32%
- Antihypertensive activity, duration ([1]; p.o.): perhaps of long duration
- Antihypertensive activity, onset / comparison in words ([1]; p.o.): somewhat slow in onset
- Dose with borderline antihypertensive result ([1]; p.o.): 10 mg/kg
- inhibition in vivo at 5 mg/kg [5]: 14%
- inhibition in vivo at 200 mg/kg [6]: 0%

SMILES: CC1(C)CCCC(C)(C)N1CC1=CC(=O)N(c2ccccc2)C1 [Compound 6]
- inhibition in vivo at 50 mg/kg [2]: 75%
- H = Hypoglycemic: percent decrease in serum glucose concentration [7]: 29%
- Autonomic effect / autonomic inhibition [3]: little evidence of autonomic effect
- A = Antiarrythmic: mouse hearts fibrillating (of 3) [4]: 3
- inhibition in vivo at 100 mg/kg [1]: 18%
- inhibition in vivo at 5 mg/kg [5]: 20%
- inhibition in vivo at 200 mg/kg [6]: 12%

SMILES: CCN(CC)CCNC(=O)c1cc(Cl)c(N)cc1OC [metoclopramide]
- ED100 [8]: > 100 mg/kg

SMILES: COC(=O)C1=C(C)NC(C)=C(C(=O)OC)C1c1ccccc1[N+](=O)[O-] [nifedipine, reference compound]
- ED100 ([4]; mice, reference compounds): 25 mg/kg
- ED100 ([1]; SHR, reference compounds): 50 mg/kg

SMILES: CCN(CC)CC(=O)Nc1c(C)cccc1C [lidocaine, reference compound]
- ED100 [4]: 50 mg/kg

SMILES: CS(=O)(=O)c1ccc(-c2cn3ccccc3n2)cc1 [zolimidine, reference compound]
- ED100 ([2]; rats, reference compounds): > 100 mg/kg

SMILES: COc1ccc([C@@H]2Sc3ccccc3N(CCN(C)C)C(=O)[C@@H]2OC(C)=O)cc1 [diltiazem, reference compound]
- ED100 ([4]; mice, reference compounds): 50 mg/kg
- ED100 [5]: 10 mg/kg

SMILES: CNC1=Nc2ccc(Cl)cc2C(c2ccccc2)=[N+]([O-])C1 [chlordiazepoxide, reference compound]
- ED100 [2]: 100 mg/kg

SMILES: N=C(N)NN=Cc1c(Cl)cccc1Cl [quanabenz, reference compound]
- ED100 [1]: < 6 mg/kg
- ED100 [5]: 2.5 mg/kg

SMILES: CN(C)CCCN1c2ccccc2CCc2ccccc21 [imipramine]
- ED100 [8]: 25 mg/kg

SMILES: COc1cc2nc(N3CCN(C(=O)c4ccco4)CC3)nc(N)c2cc1OC [prazosin, reference compound]
- ED100 ([1]; SHR, reference compounds): 1 mg/kg

SMILES: CN(C)CCCN1c2ccccc2Sc2ccc(Cl)cc21 [chlorpromazine, reference compound]
- ED100 [2]: 20 mg/kg
- ED100 [8]: 2.5 mg/kg

SMILES: CCN(CC)CCOC(=O)c1ccc(N)cc1 [procaine, reference compound]
- ED100 [4]: 100 mg/kg

SMILES: CCN1CCCC1CNC(=O)c1cc(S(N)(=O)=O)ccc1OC (stereo not drawn) [sulpiride]
- ED100 [8]: > 100 mg/kg

SMILES: O=C(CCCN1CCC(O)(c2ccc(Cl)cc2)CC1)c1ccc(F)cc1 [haloperidol]
- ED100 [8]: 10 mg/kg

SMILES: CSc1ccc2c(c1)N(CCC1CCCCN1C)c1ccccc1S2 (stereo not drawn) [thioridazine]
- ED100 [8]: 10 mg/kg

SMILES: C[C@H](CS)C(=O)N1CCC[C@H]1C(=O)O [captopril, reference compound]
- ED100 ([1]; SHR, reference compounds): 100 mg/kg
